Measured values reported in ChEMBL document CHEMBL1201862, “PubChem BioAssay data set” (2004).
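Step 1: Grow cells in 96-well plates. Step 2: Expose to compound for 48 hours at 5 concentrations. Step 3: Interpolate endpoints linearly; if unreached, use highest concentration. GI50 = concentration required for 50% inhibition of growth.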 The source made the active and inactive calls. No stated cut-off is given here; in the data, active = GI50 up to about 1.1 µM and inactive = higher.

Legend:
Test in all cases: DTP human tumour cell line panel, 48 h
HOP-62 = tested on: HOP-62
EKVX = tested on: EKVX
SF-268 = tested on: SF-268
Hs-578T = tested on: Hs-578T
OVCAR-3 = tested on: OVCAR-3
CCRF-CEM = tested on: CCRF-CEM
RXF 393 = tested on: RXF 393
HCC 2998 = tested on: HCC 2998
ACHN = tested on: ACHN
A549 = tested on: A549
SN12C = tested on: SN12C
NCI/ADR-RES = tested on: NCI/ADR-RES
MDA-N = tested on: MDA-N
NCI-H226 = tested on: NCI-H226
NCI-H522 = tested on: NCI-H522
HOP-92 = tested on: HOP-92
OVCAR-5 = tested on: OVCAR-5
786-0 = tested on: 786-0
SK-OV-3 = tested on: SK-OV-3
HL-60 = tested on: HL-60

Row | Structure (SMILES) | GI50 (HOP-62) | GI50 (EKVX) | GI50 (SF-268) | GI50 (Hs-578T) | GI50 (OVCAR-3) | GI50 (CCRF-CEM) | GI50 (RXF 393) | GI50 (HCC 2998) | GI50 (ACHN) | GI50 (A549) | GI50 (SN12C) | GI50 (NCI/ADR-RES) | GI50 (MDA-N) | GI50 (NCI-H226) | GI50 (NCI-H522) | GI50 (HOP-92) | GI50 (OVCAR-5) | GI50 (786-0) | GI50 (SK-OV-3) | GI50 (HL-60)
1 | Cn1c(=O)c2nc(CCNC(=O)c3ccccc3)[nH]c2n(C)c1=O | > 100 µM (inactive) | > 100 µM (inactive) | > 100 µM (inactive) | > 100 µM (inactive) | > 100 µM (inactive) | > 100 µM (inactive) | > 100 µM (inactive) | > 100 µM (inactive) | > 100 µM (inactive) | > 100 µM (inactive) | > 100 µM (inactive) | > 100 µM (inactive) | > 100 µM (inactive) | > 100 µM (inactive) | > 100 µM (inactive) | > 100 µM (inactive) | > 100 µM (inactive) | > 100 µM (inactive) | – | –
2 | COc1cc2c(c(OC)c1OC)-c1ccc(SC)c(=O)cc1C(NC=O)CC2 (stereo not given) | < 0.01 µM (active) | 3.6 µM (inactive) | < 0.01 µM (active) | < 0.01 µM (active) | < 0.01 µM (active) | 0.015 µM (active) | 0.0463 µM (active) | < 0.01 µM (active) | < 0.01 µM (active) | < 0.01 µM (active) | < 0.01 µM (active) | 0.0393 µM (active) | < 0.01 µM (active) | 0.0465 µM (active) | < 0.01 µM (active) | < 0.01 µM (active) | 0.164 µM (active) | < 0.01 µM (active) | 0.0371 µM (active) | < 0.01 µM (active)
3 | CC(C)(CO)CNc1nc(N)nc(Cl)c1/C=N/O | 30.9 µM (inactive) | 17.5 µM (inactive) | 8.91 µM (inactive) | 27 µM (inactive) | 23 µM (inactive) | 23 µM (inactive) | 22.2 µM (inactive) | 71.1 µM (inactive) | 28.6 µM (inactive) | 16.9 µM (inactive) | 72.4 µM (inactive) | 41.6 µM (inactive) | 41.2 µM (inactive) | 22.6 µM (inactive) | 25.8 µM (inactive) | 19.7 µM (inactive) | 41.2 µM (inactive) | 36.7 µM (inactive) | – | 29.8 µM (inactive)
4 | O=C1SC(c2ccc(Cl)cc2)(c2ccc(Cl)cc2)c2ccccc21 | > 100 µM (inactive) | 86.7 µM (inactive) | > 100 µM (inactive) | 81.8 µM (inactive) | 79.3 µM (inactive) | 36.2 µM (inactive) | 39.4 µM (inactive) | 38.3 µM (inactive) | 91 µM (inactive) | > 100 µM (inactive) | > 100 µM (inactive) | > 100 µM (inactive) | 62.4 µM (inactive) | 39.5 µM (inactive) | 70 µM (inactive) | 81.5 µM (inactive) | > 100 µM (inactive) | > 100 µM (inactive) | > 100 µM (inactive) | 28.2 µM (inactive)
5 | Cc1csc2c1C(=O)c1ccsc1C2=O | – | 7.98 µM (inactive) | 2.96 µM (inactive) | 1.81 µM (inactive) | 2.07 µM (inactive) | 4.03 µM (inactive) | 3.21 µM (inactive) | 6.11 µM (inactive) | 2.98 µM (inactive) | 1.72 µM (inactive) | 2.2 µM (inactive) | 1.87 µM (inactive) | 0.293 µM (active) | 11 µM (inactive) | 2.21 µM (inactive) | 3.56 µM (inactive) | 1.96 µM (inactive) | 4.63 µM (inactive) | 20.4 µM (inactive) | 2.65 µM (inactive)
6 | CCN1CCC(CNC(=O)c2ccc(N)cc2)N1CC (stereo not given) | > 100 µM (inactive) | > 100 µM (inactive) | > 100 µM (inactive) | > 100 µM (inactive) | > 100 µM (inactive) | > 100 µM (inactive) | > 100 µM (inactive) | > 100 µM (inactive) | > 100 µM (inactive) | > 100 µM (inactive) | > 100 µM (inactive) | > 100 µM (inactive) | > 100 µM (inactive) | > 100 µM (inactive) | > 100 µM (inactive) | > 100 µM (inactive) | > 100 µM (inactive) | > 100 µM (inactive) | > 100 µM (inactive) | > 100 µM (inactive)
7 | Cc1ccccc1NC(=O)C(=O)CC(=O)c1sc(Nc2ccccc2[N+](=O)[O-])nc1C | 25.2 µM (inactive) | 34 µM (inactive) | 38.5 µM (inactive) | 40.8 µM (inactive) | 32 µM (inactive) | – | 26.4 µM (inactive) | 24.4 µM (inactive) | 20.3 µM (inactive) | 34.8 µM (inactive) | 50.6 µM (inactive) | 41.2 µM (inactive) | 35.7 µM (inactive) | 34.8 µM (inactive) | 27.7 µM (inactive) | 29.3 µM (inactive) | 90.2 µM (inactive) | 21.5 µM (inactive) | 25.2 µM (inactive) | 60.4 µM (inactive)
8 | O=C(CC(C(=O)c1ccsc1)c1ccc2c(c1)OCO2)c1ccccc1 (stereo not given) | > 100 µM (inactive) | > 100 µM (inactive) | > 100 µM (inactive) | > 100 µM (inactive) | > 100 µM (inactive) | > 100 µM (inactive) | > 100 µM (inactive) | > 100 µM (inactive) | > 100 µM (inactive) | 8.17 µM (inactive) | > 100 µM (inactive) | > 100 µM (inactive) | > 100 µM (inactive) | > 100 µM (inactive) | 59 µM (inactive) | > 100 µM (inactive) | > 100 µM (inactive) | > 100 µM (inactive) | > 100 µM (inactive) | > 100 µM (inactive)
9 | N/C(CSCCSC/C(N)=N/O)=N\O | > 100 µM (inactive) | > 100 µM (inactive) | > 100 µM (inactive) | > 100 µM (inactive) | > 100 µM (inactive) | > 100 µM (inactive) | > 100 µM (inactive) | > 100 µM (inactive) | > 100 µM (inactive) | > 100 µM (inactive) | > 100 µM (inactive) | > 100 µM (inactive) | > 100 µM (inactive) | > 100 µM (inactive) | > 100 µM (inactive) | > 100 µM (inactive) | > 100 µM (inactive) | > 100 µM (inactive) | > 100 µM (inactive) | > 100 µM (inactive)
10 | C=CC1(O)CCCC=C1COCc1ccccc1 (stereo not given) | > 100 µM (inactive) | > 100 µM (inactive) | 67 µM (inactive) | > 100 µM (inactive) | – | 43.6 µM (inactive) | > 100 µM (inactive) | > 100 µM (inactive) | 56 µM (inactive) | > 100 µM (inactive) | 70 µM (inactive) | > 100 µM (inactive) | 73.8 µM (inactive) | > 100 µM (inactive) | 16 µM (inactive) | 52 µM (inactive) | > 100 µM (inactive) | > 100 µM (inactive) | > 100 µM (inactive) | 27.4 µM (inactive)
11 | CN(C)c1n/c(=N/Cc2cccs2)ss1 | > 10 µM (inactive) | > 10 µM (inactive) | > 10 µM (inactive) | > 10 µM (inactive) | > 10 µM (inactive) | 0.173 µM (active) | > 10 µM (inactive) | > 10 µM (inactive) | > 10 µM (inactive) | > 10 µM (inactive) | > 10 µM (inactive) | > 10 µM (inactive) | > 10 µM (inactive) | > 10 µM (inactive) | 2.11 µM (inactive) | > 10 µM (inactive) | > 10 µM (inactive) | 9.98 µM (inactive) | > 10 µM (inactive) | 1.35 µM (inactive)
12 | Oc1ccc(/C=N/CC2CCCN3CCCCC23)cc1 (stereo not given) | 26.7 µM (inactive) | 27.5 µM (inactive) | 24.5 µM (inactive) | 33.1 µM (inactive) | 29.4 µM (inactive) | – | 20 µM (inactive) | 20 µM (inactive) | 15.5 µM (inactive) | 27.3 µM (inactive) | 19.1 µM (inactive) | 46.8 µM (inactive) | 18.4 µM (inactive) | 21.6 µM (inactive) | 17.9 µM (inactive) | 24.2 µM (inactive) | 31.3 µM (inactive) | 17.9 µM (inactive) | 46 µM (inactive) | –
13 | CC(N)C(C)Cc1ccccc1 (stereo not given) | > 100 µM (inactive) | > 100 µM (inactive) | > 100 µM (inactive) | 77.1 µM (inactive) | > 100 µM (inactive) | – | > 100 µM (inactive) | > 100 µM (inactive) | > 100 µM (inactive) | > 100 µM (inactive) | > 100 µM (inactive) | > 100 µM (inactive) | > 100 µM (inactive) | > 100 µM (inactive) | > 100 µM (inactive) | 64.4 µM (inactive) | > 100 µM (inactive) | > 100 µM (inactive) | > 100 µM (inactive) | > 100 µM (inactive)
14 | COc1cc(C[C@H]2c3cc(OC)c(OC)cc3CCN2C)c(Oc2cc3c(cc2OC)-c2c(OC)c(OC)cc4c2[C@H](C3)N(C)CC4)cc1OC [THALICARPINE] | 10.6 µM (inactive) | 12.9 µM (inactive) | 9.98 µM (inactive) | 2.99 µM (inactive) | 10.5 µM (inactive) | 8.99 µM (inactive) | 3.05 µM (inactive) | 7.6 µM (inactive) | 12.9 µM (inactive) | 11.9 µM (inactive) | 12.4 µM (inactive) | 11.3 µM (inactive) | 4.13 µM (inactive) | 6.58 µM (inactive) | 6.89 µM (inactive) | 1.78 µM (inactive) | 10.5 µM (inactive) | 3.52 µM (inactive) | – | 2.84 µM (inactive)
